Among the data in BindingDB's records for doi:10.1016/j.chembiol.2008.10.014 (Columbia University, 2008) are IC50 values, retold here.

As a reminder, the IC50 is the concentration that inhibits the measured activity by half.

This assay concerns the target T1, Olfactory receptor (Rattus norvegicus, UniProt D3Z9H0).
T1 sequence (D3Z9H0 whole entry): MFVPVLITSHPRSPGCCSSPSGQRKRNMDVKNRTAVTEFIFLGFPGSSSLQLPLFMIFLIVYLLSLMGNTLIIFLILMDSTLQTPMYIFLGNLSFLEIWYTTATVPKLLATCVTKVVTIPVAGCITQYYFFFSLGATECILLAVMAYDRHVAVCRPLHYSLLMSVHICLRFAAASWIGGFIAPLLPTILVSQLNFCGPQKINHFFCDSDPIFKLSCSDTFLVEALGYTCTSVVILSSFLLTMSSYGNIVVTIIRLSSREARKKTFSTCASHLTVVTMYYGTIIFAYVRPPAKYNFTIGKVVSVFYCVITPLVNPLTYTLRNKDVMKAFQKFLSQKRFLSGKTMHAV
Nature of the assay: Inhibition Assay. An excerpt:
Inhibition assay of olfactory receptors 17 activation.
Regarding `O=CC1CCCCCC1` [Aldehydes, 6], the midpoint of inhibition, the IC50, lay at 57 µM.

On to `O=CCC1CCCCC1` [Aldehydes, 5], for which inhibition was half-maximal at 37 µM (IC50).

Compound `O=CCCC1CCCC1` [Aldehydes, 4] displayed a concentration for half-maximal inhibition (IC50) of 60 µM.

Compound `CCCCCC=O` [Aldehydes, C6] showed a half-maximal inhibitory concentration (IC50) of 133 µM.

The compound `CCCCC=O` [Aldehydes, C5] registered an IC50 of 460 µM.
